Experiments:
Format in all cases: cell-based
TEC = biological target: T1, TEC (Homo sapiens, UniProt P42680); test: Expression proteomics in THP-1 cells: TEC protein level
T1 construct: endogenous in cells; host or cells: THP-1
T1 sequence (P42680 1-631): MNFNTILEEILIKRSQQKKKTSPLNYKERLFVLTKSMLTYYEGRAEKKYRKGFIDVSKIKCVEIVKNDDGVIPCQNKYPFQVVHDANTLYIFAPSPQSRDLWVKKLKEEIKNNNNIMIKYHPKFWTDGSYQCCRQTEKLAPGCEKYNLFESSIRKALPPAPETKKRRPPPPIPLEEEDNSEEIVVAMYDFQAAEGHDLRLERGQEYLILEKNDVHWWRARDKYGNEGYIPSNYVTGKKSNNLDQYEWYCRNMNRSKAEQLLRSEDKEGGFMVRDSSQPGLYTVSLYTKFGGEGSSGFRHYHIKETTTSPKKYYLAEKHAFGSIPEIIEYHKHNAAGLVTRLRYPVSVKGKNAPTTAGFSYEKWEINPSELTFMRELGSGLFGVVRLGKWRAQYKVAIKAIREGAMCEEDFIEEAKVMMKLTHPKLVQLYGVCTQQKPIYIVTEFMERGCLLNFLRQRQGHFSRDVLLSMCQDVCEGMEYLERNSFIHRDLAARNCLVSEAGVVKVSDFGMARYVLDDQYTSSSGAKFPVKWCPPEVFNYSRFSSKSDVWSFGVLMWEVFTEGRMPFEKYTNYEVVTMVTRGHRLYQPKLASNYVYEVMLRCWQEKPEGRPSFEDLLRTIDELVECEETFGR
Description: (§1) THP-1 cells were seeded at a concentration of 3×10^6 cells in T175 flasks with 60 mL growth medium (RPMI1640+10% FBS). […] of a 10× compound solution prepared in growth medium (DMSO), CEREBLON_PROTAC) was added and the cells were treated for the indicated time points (6 or 24 h) at 37° C., 5% CO2. For harvesting the cells were collected into falcon tubes on ice, centrifuged and washed twice in cold PBS (Life technologies). After the last washing step the supernatant was removed and the pellets were snap-frozen in liquid N2 and stored at −80° C. and lysed in 2% SDS for 3 min at 95° C. in a thermomixer (Thermo Fisher Scientific), followed by digestion of DNA with Benzonase at 37° C. for 1.5 h. Lysate was cleared by centrifugation an protein concentration in supernatant was determined by BCA assay.
(§2) Leukemia 25, 89-100 (2011).
(§3) Samples were dried in vacuo and resuspended in 0.05% trifluoroacetic acid in water. Of the sample, 50% was injected into an Ultimate3000 nanoRLSC (Dionex, Sunnyvale, Calif.) coupled to a Q Exactive HF (Thermo Fisher Scientific). Peptides were trapped on a 5 mm×300 μm C18 column (Pepmap100, 5 μm, 300 Å, Thermo Fisher Scientific) in water with 0.05% TFA at 60° C. Separation was performed on custom 50 cm×[…] (ID) reversed-phase columns (Reprosil) at 55° C. Gradient elution was performed from 2% acetonitrile to 40% acetonitrile in 0.1% formic acid and 3.5% DMSO over 2 hours. Samples were online injected into Q-Exactive HF mass spectrometers operating with a data-dependent top 10 method. MS spectra were acquired by using 60.000 resolution and an ion target of 3×10^6. Higher energy collisional dissociation (HCD) scans were performed with 35% NCE at 30.000 resolution (at m/z 200), and the ion target settings was set to 2×10^5 so as to avoid coalescence (Werner, T. et al. Ion Coalescence of Neutron Encoded TMT 10-Plex Reporter Ions. Anal. Chem. 86, 3594-3601 (2014).
(§4) The first search was performed with 30 parts per million mass tolerance for peptide precursors and 30 mD (HCD) mass tolerance for fragment ions followed by a final search using recalibrated data with a 10 parts per million mass tolerance for peptide precursors and 20 mD (HCD) mass tolerance for fragment ions. Carbamidomethylation of cysteine residues and TMT modification of lysine residues were set as fixed modifications and methionine oxidation, and N-terminal acetylation of proteins and TMT modification of peptide N-termini were set as variable modifications. […]
(§5) Nat Biotech 29, 255-265 (2011). this measure is referred to as ion area Savitski, M. M. et al. Delayed Fragmentation and Optimized Isolation Width Settings for Improvement of Protein Identification and Accuracy of Isobaric Mass Tag Quantification on Orbitrap-Type Mass Spectrometers. […]

AURKB = biological target: T2, AURKB (Homo sapiens, UniProt Q96GD4); test: Expression proteomics in THP-1 cells: AURKB protein level
T2 construct: endogenous in cells; host or cells: THP-1
Description: as §1, §2, §3, §4, §5

PTK2B = biological target: T3, PTK2B (Homo sapiens, UniProt Q14289); test: Expression proteomics in THP-1 cells: PTK2B protein level
T3 construct: endogenous in cells; host or cells: THP-1
Description: as §1, §2, §3, §4, §5

T2 sequence (Q96GD4 whole entry): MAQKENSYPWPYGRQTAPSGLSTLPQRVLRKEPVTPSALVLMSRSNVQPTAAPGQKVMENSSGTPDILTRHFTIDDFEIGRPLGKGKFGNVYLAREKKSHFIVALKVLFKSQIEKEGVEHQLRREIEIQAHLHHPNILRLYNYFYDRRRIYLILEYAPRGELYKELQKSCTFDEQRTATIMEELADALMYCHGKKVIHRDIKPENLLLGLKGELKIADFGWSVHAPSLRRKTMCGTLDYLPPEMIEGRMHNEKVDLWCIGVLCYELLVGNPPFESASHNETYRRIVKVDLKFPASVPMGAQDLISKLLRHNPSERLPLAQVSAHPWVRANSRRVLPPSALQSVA
T3 sequence (Q14289 whole entry): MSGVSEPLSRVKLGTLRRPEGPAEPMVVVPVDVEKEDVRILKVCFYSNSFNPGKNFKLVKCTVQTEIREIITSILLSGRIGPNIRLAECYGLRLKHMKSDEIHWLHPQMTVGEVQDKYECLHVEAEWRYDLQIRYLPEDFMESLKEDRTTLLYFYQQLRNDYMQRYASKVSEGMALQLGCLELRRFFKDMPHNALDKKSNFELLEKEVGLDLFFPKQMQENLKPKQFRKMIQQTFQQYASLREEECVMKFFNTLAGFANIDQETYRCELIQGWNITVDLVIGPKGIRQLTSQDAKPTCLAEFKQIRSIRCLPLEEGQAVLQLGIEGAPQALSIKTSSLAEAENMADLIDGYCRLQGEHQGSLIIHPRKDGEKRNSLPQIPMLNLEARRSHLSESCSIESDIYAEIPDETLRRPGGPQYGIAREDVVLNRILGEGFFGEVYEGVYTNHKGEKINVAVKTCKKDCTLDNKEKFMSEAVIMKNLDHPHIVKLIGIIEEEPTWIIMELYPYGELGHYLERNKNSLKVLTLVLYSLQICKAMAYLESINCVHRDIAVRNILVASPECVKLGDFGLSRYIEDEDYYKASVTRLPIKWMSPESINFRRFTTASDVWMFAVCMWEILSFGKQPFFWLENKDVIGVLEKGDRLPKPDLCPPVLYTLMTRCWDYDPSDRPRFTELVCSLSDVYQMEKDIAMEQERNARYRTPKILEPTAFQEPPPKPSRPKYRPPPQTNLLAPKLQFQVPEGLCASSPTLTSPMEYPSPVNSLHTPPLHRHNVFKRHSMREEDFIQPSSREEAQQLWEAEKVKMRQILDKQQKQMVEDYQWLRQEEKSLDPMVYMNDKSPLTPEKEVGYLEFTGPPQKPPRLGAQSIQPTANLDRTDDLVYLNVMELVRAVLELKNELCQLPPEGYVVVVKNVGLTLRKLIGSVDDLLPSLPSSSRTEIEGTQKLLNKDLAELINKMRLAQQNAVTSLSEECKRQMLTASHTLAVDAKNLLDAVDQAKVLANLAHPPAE

log2 rel. fc. to vehicle control (TEC; 24 h 0.1 μM, n = 1): −1.83
log2 rel. fc. to vehicle control (TEC; 24 h 0.1 μM, n = 2): −2.38
log2 rel. fc. to vehicle control (TEC; 24 h 1 μM, n = 1): −1.74
log2 rel. fc. to vehicle control (TEC; 24 h 1 μM, n = 2): −1.94
log2 rel. fc. to vehicle control (AURKB; 24 h 0.1 μM, n = 1): −1.75
log2 rel. fc. to vehicle control (AURKB; 24 h 0.1 μM, n = 2): −1.44
log2 rel. fc. to vehicle control (AURKB; 24 h 1 μM, n = 1): −0.83
log2 rel. fc. to vehicle control (AURKB; 24 h 1 μM, n = 2): −1.33
log2 rel. fc. to vehicle control (PTK2B; 24 h 0.1 μM, n = 1): −2.34
log2 rel. fc. to vehicle control (PTK2B; 24 h 0.1 μM, n = 2): −2.50
log2 rel. fc. to vehicle control (PTK2B; 24 h 1 μM, n = 1): −2.09
log2 rel. fc. to vehicle control (PTK2B; 24 h 1 μM, n = 2): −2.18
Compound: CNC(=O)c1ccccc1Nc1nc(Nc2ccc(N3CCN(CCOCCOCCOCCOCC(=O)Nc4cccc5c4CN(C4CCC(=O)NC4=O)C5=O)CC3)cc2)ncc1Cl.O=CO (stereo not drawn) [CEREBLON_PROTAC, 14-(4-(4-((5-Chloro-4-((2-(methylcarbamoyl)phenyl)amino)pyrimidin-2-yl)amino)phenyl)piperazin-1-yl)-N-(2-(2,6-dioxopiperidin-3-yl)-1-oxoisoindolin-4-yl)-3,6,9,12-tetraoxatetradecan-1-amide formate]

From patent US20190210996A1, “NOVEL COMPOUNDS” (GLAXOSMITHKLINE INTELLECTUAL PROPERTY DEVELOPMENT LIMITED, priority 2016, published 2019)
